Source: paper PMC6272775, “Three New Pigment Protein Tyrosine Phosphatases Inhibitors from the Insect Parasite Fungus Cordyceps gracilioides: Terreusinone A, Pinophilin C and Cryptosporioptide A” (Molecules, 2015)

Legend:
Type in all cases: biochemical
CDC25B = target: T1, CDC25B (Homo sapiens, UniProt P30305); assay: PTP assay with pNPP as substrate, CDC25B; conditions: GST-ΔCDC25B PTP activity domain, 37 °C, pH 5.5
T1 construct: fusion proteins which only carry the PTP activity domain were expressed in Escherichia coli DH5α; GST (N); made in house; host or cells: Escherichia coli DH5α
T1 sequence (P30305 431-538 limits assumed): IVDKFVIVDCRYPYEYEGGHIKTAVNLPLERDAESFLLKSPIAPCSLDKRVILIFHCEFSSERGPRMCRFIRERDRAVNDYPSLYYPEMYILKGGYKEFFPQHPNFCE
Text: (§1) Protein tyrosine phosphatases (PTPs) constitute a large family of signaling enzymes that control the cellular levels of protein tyrosine phosphorylation. Several “classical” PTPs are attractive therapeutic targets, including PTP1B for obesity and Type II diabetes, SHP1, and SHP2 and CDC25B for cancer. GST-ΔPTP1B, GST-ΔSHP2, GST-ΔSHP1, GST-ΔLAR and GST-ΔCDC25B fusion proteins which only carry the PTP activity domain were expressed in Escherichia coli DH5α and affinity purified with glutathione Sepharose (Amersham Biosciences, Piscataway, NJ, USA). p-Nitrophenyl phosphate (pNPP) was used in the enzymatic reactions to determine the intrinsic catalytic activities of the PTPs. All assays using pNPP as the substrate were performed in a buffered reaction medium containing 10 mM of sodium acetate (NaAc), 1 mM of ethylenediaminetetraacetic acid and 1 mM of dithiothreitol at 37 °C, pH 5.5. Sodium orthovanadate was used as the positive control. Every experiment was performed in triplicate. The inhibitory activity measurements of PTPs were performed with different concentrations (0, 2.5, 5, 10, 20, 40 µg mL^−1) of inhibitor and 20 µg mL^−1 of PTPs. The reaction mixture was incubated at 37 °C for 15 min and the catalytic activity was detected by monitoring the absorbance at 405 nm immediately after adding 12.5 mM of pNPP. IC50 (the concentration of an inhibitor that is required for 50% inhibition of an enzyme) data were derived from the experimental results.

LAR = target: T2, LAR (Homo sapiens, UniProt P10586); assay: PTP assay with pNPP as substrate, LAR; conditions: GST-ΔLAR PTP activity domain, 37 °C, pH 5.5
T2 construct: fusion proteins which only carry the PTP activity domain were expressed in Escherichia coli DH5α; GST (N); made in house; host or cells: Escherichia coli DH5α
T2 sequence (P10586 1352-1607 limits assumed): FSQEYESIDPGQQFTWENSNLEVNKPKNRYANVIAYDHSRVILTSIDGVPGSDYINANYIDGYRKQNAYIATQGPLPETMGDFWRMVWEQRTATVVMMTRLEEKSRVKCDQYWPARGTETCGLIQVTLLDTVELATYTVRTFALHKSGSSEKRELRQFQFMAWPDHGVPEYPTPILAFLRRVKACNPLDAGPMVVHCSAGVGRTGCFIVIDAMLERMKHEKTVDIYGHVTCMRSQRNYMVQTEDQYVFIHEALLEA
Text: as §1

PTP1B = target: T3, PTP1B (Homo sapiens, UniProt P18031); assay: PTP assay with pNPP as substrate, PTP1B; conditions: GST-ΔPTP1B PTP activity domain, 37 °C, pH 5.5
T3 construct: fusion proteins which only carry the PTP activity domain were expressed in Escherichia coli DH5α; GST (N); made in house; host or cells: Escherichia coli DH5α
T3 sequence (P18031 3-277 limits assumed): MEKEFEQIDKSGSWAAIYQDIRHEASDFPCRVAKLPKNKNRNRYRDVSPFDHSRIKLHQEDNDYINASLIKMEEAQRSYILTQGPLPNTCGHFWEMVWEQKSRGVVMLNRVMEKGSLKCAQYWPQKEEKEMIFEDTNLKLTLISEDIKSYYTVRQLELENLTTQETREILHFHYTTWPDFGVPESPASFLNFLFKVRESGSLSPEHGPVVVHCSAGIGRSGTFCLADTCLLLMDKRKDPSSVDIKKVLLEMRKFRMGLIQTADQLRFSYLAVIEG
Text: Protein tyrosine phosphatases (PTPs) constitute a large family of signaling enzymes that control the cellular levels of protein tyrosine phosphorylation. Several “classical” PTPs are attractive therapeutic targets, including PTP1B for obesity and Type II diabetes, SHP1, and SHP2 and CDC25B for cancer. GST-ΔPTP1B, GST-ΔSHP2, GST-ΔSHP1, GST-ΔLAR and GST-ΔCDC25B fusion proteins which only carry the PTP activity domain were expressed in Escherichia coli DH5α and affinity purified with glutathione Sepharose (Amersham Biosciences, Piscataway, NJ, USA). p-Nitrophenyl phosphate (pNPP) was used in the enzymatic reactions to determine the intrinsic catalytic activities of the PTPs. All assays using pNPP as the substrate were performed in a buffered reaction medium containing 10 mM of sodium acetate (NaAc), 1 mM of ethylenediaminetetraacetic acid and 1 mM of dithiothreitol at 37 °C, pH 5.5. […] Every experiment was performed in triplicate. The inhibitory activity measurements of PTPs were performed with different concentrations (0, 2.5, 5, 10, 20, 40 µg mL^−1) of inhibitor and 20 µg mL^−1 of PTPs. The reaction mixture was incubated at 37 °C for 15 min and the catalytic activity was detected by monitoring the absorbance at 405 nm immediately after adding 12.5 mM of pNPP.

SHP2 = target: T4, SHP2 (Homo sapiens, UniProt Q06124); assay: PTP assay with pNPP as substrate, SHP2; conditions: GST-ΔSHP2 PTP activity domain, 37 °C, pH 5.5
T4 construct: fusion proteins which only carry the PTP activity domain were expressed in Escherichia coli DH5α; GST (N); made in house; host or cells: Escherichia coli DH5α
T4 sequence (Q06124 247-517 limits assumed): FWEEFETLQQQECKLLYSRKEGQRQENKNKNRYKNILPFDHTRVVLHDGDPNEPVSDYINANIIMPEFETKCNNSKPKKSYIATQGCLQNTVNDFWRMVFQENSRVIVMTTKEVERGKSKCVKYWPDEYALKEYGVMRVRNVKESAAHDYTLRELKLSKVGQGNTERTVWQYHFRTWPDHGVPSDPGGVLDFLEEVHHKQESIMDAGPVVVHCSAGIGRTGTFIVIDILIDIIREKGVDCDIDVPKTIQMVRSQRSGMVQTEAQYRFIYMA
Text: as §1

SHP1 = target: T5, SHP1 (Homo sapiens, UniProt P29350); assay: PTP assay with pNPP as substrate, SHP1; conditions: GST-ΔSHP1 PTP activity domain, 37 °C, pH 5.5
T5 construct: fusion proteins which only carry the PTP activity domain were expressed in Escherichia coli DH5α; GST (N); made in house; host or cells: Escherichia coli DH5α
T5 sequence (P29350 244-515 limits assumed): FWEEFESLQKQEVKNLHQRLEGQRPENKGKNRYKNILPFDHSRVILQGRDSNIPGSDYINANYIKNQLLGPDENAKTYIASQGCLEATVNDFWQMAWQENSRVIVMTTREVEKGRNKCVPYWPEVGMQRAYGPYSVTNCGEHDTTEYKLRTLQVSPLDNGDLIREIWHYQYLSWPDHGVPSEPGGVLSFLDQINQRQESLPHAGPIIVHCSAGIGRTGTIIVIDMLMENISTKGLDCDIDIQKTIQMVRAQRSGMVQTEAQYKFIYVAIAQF
Text: as §1

| Structure (SMILES) | IC50 (CDC25B) | IC50 (LAR) | IC50 (PTP1B) | IC50 (SHP2) | IC50 (SHP1) | IC50 Values SHP2 (SHP2) | IC50 Values SHP1 (SHP1) |
| --- | --- | --- | --- | --- | --- | --- | --- |
| CC1(O)C2OC(=O)CCC(=O)NC3(Oc4ccc(C(=O)O)c(O)c4C(=O)C13)C2(C)O (single isomer, unassigned; (+)) [Compound 3] | 18 µM | > 119 µM | 17.3 µM | 13.5 µM | 11.6 µM |  |  |
| COC(c1cc2c([nH]1)C(=O)c1cc(C(OC)C(C)C)[nH]c1C2=O)C(C)C (centres unmarked) [Compound 1, 2,6-bis(1-methoxy-2-methylpropyl) pyrrolo[2,3-f]indole-4,8(1H,5H)-dione] | 11.4 µM | 29.6 µM | 34.9 µM | > 139 µM | 15.6 µM |  |  |
| Cc1cc(O)cc(O)c1C(=O)O[C@]1(C)C(=O)C=C2C=C(/C=C/C(=O)O)OC[C@H]2[C@@H]1O [Compound 2, (E)-3-((7S,8S,8aS)-7-((2,4-dihydroxy-6-methylbenzoyl)oxy)-8-hydroxyl-7-methyl-6-oxo-6,7,8,8a-tetra-hydro-1H-isochromen-3-yl)acrylic acid] | 10.8 µM | 11.3 µM | 16.3 µM | 19.2 µM | 8.17 µM |  |  |
| [Na+].[Na+].[Na+].[O]=[V]([O-])([O-])[O-] [Sodium orthovanadate, reference compound] |  |  |  |  |  | 122.2 µg/mL | 4.3 µg/mL |
